# Peptide text beside a SMILES is read from it.
# System: mTOR
# Assay: mTOR activity by immunoblotting in HeLa cells (wildtype and TSC2-deleted)
# Type: cell-based
# Conditions: 100 μM GPN 1 h
# Procedure: (A) Analysis of mTOR activity in TSC2-deleted (TSC2−/−) and wildtype (TSC2WT) HeLa cells treated with 100 μM GPN in full medium (Full) or starved in EBSS for 1 h. mTOR activity was monitored by immunoblotting analysis of S6K1 (T389) phosphorylation (phosphorylated S6K (p-T389) relative to total S6K). Ctrl, control (untreated cells). (B) Co-immunoprecipitation analysis of changes in interactions between Ragulator and Rag GTPases following treatment with GPN. HEK293T cells stably expressing FLAG-metap2 (control) or FLAG-p14 were treated with 100 μM GPN in full medium for 1 h. Cell lysates were immunoprecipitated (IP) with anti-FLAG antibody and immunoblotted for endogenous RagA or RagC. […] (D) Analysis of mTOR activity in HEK293T cells or HEK293T cells stably expressing constitutively active RagB GTPase (RagBQ99L) treated with 100 μM GPN in full medium or starved in EBSS for 1 h. mTOR activity was monitored as in A. Data, means±SEM, (n=3), † not significant, **p<0.01, ANOVA. […] (F) Quantification by HC of overlaps between mTOR and LAMP2 (representative images shown in FIG. S2C) in HEK293T cells and HEK293T cells stably expressing constitutively active RagB GTPase (RagBQ99L) treated with 100 μM GPN in full medium for 1 h. Data, means±SEM, n≥3 independent experiments (500 primary objects counted per well; ≥5 wells/sample per each experiment); † p≥0.05, *p<0.05, ANOVA. […]
structure (smiles),measurement,setting,value
"NCC(=O)N[C@@H](Cc1ccccc1)C(=O)Nc1ccc2ccccc2c1 [GPN, glycyl-L-phenylalanine 2-naphththylamide] (HELM PEPTIDE1{G.F.[c1ccc2cc(N[*:1])ccc2c1]}$$$$V2.0)",mTOR activity in different cell lines,"HeLa cells, comparable to starvation",inhibited mTOR activity
same,mTOR activity in cells null for TSC2,TSC2-deleted HeLa cells,inhibited mTOR

# Reference: patent US20210069295A1, “GALECTINS CONTROL MTOR IN RESPONSE TO ENDOMEMBRANE DAMAGE AND PROVIDE A MECHANISM AND TARGET FOR THE TREATMENT OF AUTOPHAGY-RELATED DISEASES” (STC. UNM, priority 2017, published 2021)
